# Read-outs that look alike come from different tables or passages of the source.
# What was measured:
# Assay type in all cases: cell-based
# [1] = system: T47D cells expressing mutant PI3Ka (H1047R); experiment: In vitro cell proliferation, T47D cells (CellTiter-Glo); conditions: inhibition of proliferation, read-out: Avg T-47D EC50
# Procedure: (§1) In Vitro Cell Proliferation: Determination of EC50 Values for Inhibition of Proliferation in T47D Cells Expressing Mutant PI3Ka (H1047R) Mutation and SKBR3 Cells Express WT PI3Ka.
# (§2) T47D or SKBR3 cells were trypsinized, resuspended in culture media and seeded onto assay ready plates. T47D culture media consisted of RPMI, 10% FBS and Insulin (0.2 units/mL). SKBR3 culture media consisted of McCoys 5a and 10% FBS. Cells were seeded at a density of 1,500 cells/well and dispensed in 50 μl onto 384 well assay ready plates (Corning, 89089-790). Assay ready plates had previously been stamped with 10-point dilutions of compounds of interest, as well as controls. The Echo655 is used to stamp plates at 40 nL of compound or DMSO. Cells were grown for 72 hours at 37° Celsius and 5% CO2. After 72 hours, cells were equilibrated at room temperature for 15 minutes. 30 μL of CellTiter-Glo reagent is added to the plate, which is then shaken for 30 minutes at temperature at 300-500 rpm. Cells are then read on an Envision plate reader. The percentage of inhibition of proliferation was calculated using the following formula: % Inhibition=100×(LumD−Lumsample)/(LumD−Lumlnh), where D is obtained from cells treated with 0.1% DMSO only; lnh is obtained from cells treated with 10 uM Alpelisib. The effective concentration achieving 50% inhibition of proliferation (EC50) is calculated by fitting the Curve using Xlfit (v5.3.1.3), equation 201: Y=Bottom+(Top−Bottom)/(1+10^((LogEC50−X)*HillSlope)).
# [2] = system: SKBR3 cells express WT PI3Ka; experiment: In vitro cell proliferation, SKBR3 cells (CellTiter-Glo); conditions: inhibition of proliferation
# Procedure: as §1, §2
# [3] = system: phosphorylation of AKT (pAKT) in T47D cells expressing mutant PI3Ka (H1047R); experiment: In vitro cell pAKT (Ser473) HTRF, T47D cells; conditions: cellular pAKT, T47D cells, mutant PI3Ka (H1047R), 6 hours, read-out: Avg T-47D IC50
# Procedure: (§3) In Vitro Cell pAKT: Determination of IC50 Values for Inhibition of Phosphorylation of AKT (pAKT) in T47D Cells Expressing Mutant PI3Ka (H1047R) Mutation and SKBR3 Cells Express WT PI3Ka.
# (§4) T47D or SKBR3 cells were trypsinized, resuspended in culture media and seeded onto assay ready plates. T47D culture media consisted of RPMI, 10% FBS and Insulin (0.2 units/mL). SKBR3 culture media consisted of McCoy's 5a and 10% FBS. Cells were seeded at a density of 5000 cells/well and dispensed in 12.5 μL onto 384 well assay ready plates (Perkin Elmer, 6008238)). Assay ready plates had previously been stamped with 10-point dilutions of compounds of interest, as well as controls. The Echo655 is used to stamp plates at 12.5 nL of compound or DMSO. Cells were grown for 6 hours at 37° Celsius and 5% CO2. After 6 hours, 4 μL of Lysis buffer reagent was added to the plate, which was then centrifuged for 1 minute at 1000 rpm. Then the plate was incubated at room temperature for 30 minutes. After 30 minutes, 4 μL of antibody mix containing Eu Cryptate, d2 Cryptate, and detection buffer, was added to the plate. The plate was centrifuged for 1 minute at 1000 rpm and then incubated overnight at room temperature. The plate was read on an Envision plate reader using the HTRF protocol. The percentage of inhibition of AKT phosphorylation was calculated using the following formula: % Inhibition=100×(pAKTHC−pAKTSample)/(pAKTHC−pAKTLC)), where pAKTHC is obtained from cells treated with 0.1% DMSO only; PAKTLC is obtained from cells treated with 10 uM Alpelisib. The IC50 (concentration achieving 50% inhibition of pAKT) is calculated by fitting the Curve using XIfit (v5.3.1.3), equation 201: Y=Bottom+(Top−Bottom)/(1+10^((LogIC50−X)*HillSlope)).
# [4] = system: phosphorylation of AKT (pAKT) in SKBR3 cells express WT PI3Ka; experiment: In vitro cell pAKT (Ser473) HTRF, SKBR3 cells; conditions: cellular pAKT
# Procedure: as §3, §4
SMILES,EC50 ([1]; 72 hours) [µM],EC50 ([2]; 72 hours) [µM],IC50 [3] [µM],IC50 ([4]; 6 hours) [µM],"EC50 ([2]; Homo sapiens, SK-BR-3, 72 h) [µM]","IC50 ([4]; Homo sapiens, SK-BR-3, 6 h) [µM]","EC50 ([1]; Homo sapiens, T47D, 72 h) [µM]","IC50 ([3]; Homo sapiens, T47D, 6 h) [µM]"
"Cc1cc(C(C)Nc2ccccc2C(=O)O)c2cc(N3CC(c4ccccc4)C3)n(C)c(=O)c2c1 (single isomer, unassigned) [Example 77]",0.5 to 2,> 15,0.001 to 0.5,> 15,,,,
"Cc1cc(C(C)Nc2ccccc2C(=O)O)c2cc(N3CC(Cl)C3)n(C)c(=O)c2c1 (single isomer, unassigned) [Example 78]",2 to 15,,> 15,,> 15,> 15,,
"Cc1cc(C(C)Nc2ccccc2C(=O)O)c2cc(N3CC(Cl)C3)n(C)c(=O)c2c1 (single isomer, unassigned) [Example 79]",0.001 to 0.5,> 15,0.001 to 0.5,> 15,,,,
"Cc1cc(C(C)Nc2ccccc2C(=O)O)c2cc(N3CC4(C3)CC(F)(F)C4)n(C)c(=O)c2c1 (single isomer, unassigned) [Example 80]",> 15,,> 15,,> 15,> 15,,
"Cc1cc(C(C)Nc2ccccc2C(=O)O)c2cc(N3CC4(C3)CC(F)(F)C4)n(C)c(=O)c2c1 (single isomer, unassigned) [Example 81]",0.5 to 2,> 15,0.001 to 0.5,> 15,,,,
"Cc1cc(C(C)Nc2ccccc2C(=O)O)c2cc(N3CC4(CC(C(F)(F)F)C4)C3)n(C)c(=O)c2c1 (single isomer, unassigned) [Example 82]",0.5 to 2,,0.001 to 0.5,,> 15,> 15,,
"Cc1cc(C(C)Nc2ccccc2C(=O)O)c2cc(N3CC4(CC(C(F)(F)F)C4)C3)n(C)c(=O)c2c1 (single isomer, unassigned) [Example 83]",2 to 15,> 15,> 15,> 15,,,,
"Cc1cc(C(C)Nc2ccccc2C(=O)O)c2cc(N3Cc4cccc(C(F)(F)F)c4C3)n(C)c(=O)c2c1 (single isomer, unassigned) [Example 92]",0.5 to 2,,0.001 to 0.5,,> 15,> 15,,
"Cc1cc(C(C)Nc2ccccc2C(=O)O)c2cc(N3Cc4cccc(C(F)(F)F)c4C3)n(C)c(=O)c2c1 (single isomer, unassigned) [Example 93]",2 to 15,> 15,> 15,> 15,,,,
"Cc1cc(C(C)Nc2ccccc2C(=O)O)c2cc(N3CCC4(CCN(CC(F)(F)F)C4)CC3)n(C)c(=O)c2c1 (single isomer, unassigned) [Example 96]",0.001 to 0.5,2 to 15,0.001 to 0.5,,,> 15,,
"Cc1cc(C(C)Nc2ccccc2C(=O)O)c2cc(N3CCC4(CCN(CC(F)(F)F)C4)CC3)n(C)c(=O)c2c1 (single isomer, unassigned) [Example 97]",2 to 15,> 15,2 to 15,> 15,,,,
"Cc1cc(C(C)Nc2ccccc2C(=O)O)c2cc(N3C[C@@H]4CCCC[C@H]4C3)n(C)c(=O)c2c1 (single isomer, unassigned) [Example 100]",0.001 to 0.5,,0.001 to 0.5,,> 15,> 15,,
"Cc1cc(C(C)Nc2ccccc2C(=O)O)c2cc(N3C[C@H]4CCCC[C@@H]4C3)n(C)c(=O)c2c1 (single isomer, unassigned) [Example 101]",,,,,> 15,> 15,> 15,> 15
"Cc1cc(C(C)Nc2ccccc2C(=O)O)c2cc(N3Cc4cc(F)cc(F)c4C3)n(C)c(=O)c2c1 (single isomer, unassigned) [Example 102]",2 to 15,,> 15,,> 15,> 15,,
"Cc1cc(C(C)Nc2ccccc2C(=O)O)c2cc(N3Cc4cc(F)cc(F)c4C3)n(C)c(=O)c2c1 (single isomer, unassigned) [Example 103]",0.001 to 0.5,> 15,0.001 to 0.5,> 15,,,,
"Cc1cc(C(C)Nc2ccccc2C(=O)O)c2cc(N3CCC(c4ccccc4)C3)n(C)c(=O)c2c1 (single isomer, unassigned) [Example 104]",2 to 15,2 to 15,> 15,,,> 15,,
"Cc1cc(C(C)Nc2ccccc2C(=O)O)c2cc(N3CCC(c4ccccc4)C3)n(C)c(=O)c2c1 (single isomer, unassigned) [Example 105]",0.5 to 2,> 15,0.001 to 0.5,> 15,,,,
"Cc1cc(C(C)Nc2ccccc2C(=O)O)c2cc(N3Cc4ccncc4C3)n(C)c(=O)c2c1 (single isomer, unassigned) [Example 106]",2 to 15,,> 15,,> 15,> 15,,
"Cc1cc(C(C)Nc2ccccc2C(=O)O)c2cc(N3Cc4ccncc4C3)n(C)c(=O)c2c1 (single isomer, unassigned) [Example 107]",0.001 to 0.5,> 15,0.001 to 0.5,> 15,,,,
"Cc1cc(C(C)Nc2ccccc2C(=O)O)c2cc(N3C[C@@H]4CN(CC(F)(F)F)C[C@H]4C3)n(C)c(=O)c2c1 (single isomer, unassigned) [Example 108]",2 to 15,> 15,> 15,> 15,,,,
"Cc1cc(C(C)Nc2ccccc2C(=O)O)c2cc(N3C[C@@H]4CN(CC(F)(F)F)C[C@H]4C3)n(C)c(=O)c2c1 (single isomer, unassigned) [Example 109]",0.001 to 0.5,2 to 15,0.001 to 0.5,> 15,,,,
"Cc1cc(C(C)Nc2ccccc2C(=O)O)c2cc(N3CCC4(CCN(CC(F)(F)F)CC4)CC3)n(C)c(=O)c2c1 (single isomer, unassigned) [Example 110]",2 to 15,2 to 15,> 15,> 15,,,,

# Source: patent publication US20260078103A1, “ISOQUINOLONES AS PI3K INHIBITORS” (OnKure, Inc., priority 2022, published 2026)
